Results taken from patent US7803795B2, “Phthalazine derivatives as parp inhibitors” (Janssen Pharmaceutica N.V., priority 2004, dated 2010).

What follows are molecules tested against T1, PARP-1 enzyme (Homo sapiens, UniProt P09874) (assay: in vitro Scintillation Proximity Assay (SPA) for PARP-1 inhibitory activity). Settings: [3H]-NAD+, biotinylated histones, nicked DNA; dose-response 10^-5 M to 10^-8 M; read-out: in vitro SPA assay PARP-1 pIC50 (converted).
T1 construct: made in house
Assay type: biochemical
Protocol: In vitro Scintillation Proximity Assay (SPA) for PARP-1 Inhibitory Activity
Compounds of the present invention were tested in an in vitro assay based on SPA technology (proprietary to Amersham Pharmacia Biotech).
In principle, the assay relies upon the well established SPA technology for the detection of poly(ADP-ribosylation of biotinylated target proteins, i.e histones. This ribosylation is induced using nicked DNA activated PARP-1 enzyme and [^3H]-nicotinamide adenine dinucleotide ([^3H]-NAD^+) as ADP-ribosyl donor.
As inducer of PARP-1 enzyme activity, nicked DNA was prepared. For this, 25 mg of DNA (supplier: Sigma) was dissolved in 25 ml DNAse buffer (10 mM Tris-HCl, pH 7.4; 0.5 mg/ml Bovine Serum Albumine (BSA); 5 mM MgCl2.6H2O and 1 mM KCl) to which 50 Al DNAse solution (1 mg/ml in 0.15 M NaCl) was added. After an incubation of 90 min. at 37° C., the reaction was terminated by adding 1.45 g NaCl, followed by a further incubation at 58° C. for 15 min. The reaction mixture was cooled on ice and dialysed at 4° C. for respectively 1.5 and 2 hours against 1.51 of 0.2 M KCl, and twice against 1.51 of 0.01 M KCl for 1.5 and 2 h respectively. The mixture was aliquoted and stored at −20° C. Histones (1 mg/ml, type II-A, supplier: Sigma) were biotinylated using the biotinylation kit of Amersham and stored aliquoted at −20° C. A stock solution of 100 mg/ml SPA poly(vinyl toluene) (PVT) beads (supplier: Amersham) was made in PBS. A stock solution of [^3H]-NAD^+ was made by adding 120 μl of [^3H]-NAD^+ (0.1 mCi/ml, supplier: NEN) to 6 ml incubation buffer (50 mM Tris/HCl, pH 8; 0.2 mM DTT; 4 mM MgCl2). A solution of 4 mM NAD^+ (supplier: Roche) was made in incubation buffer (from a 100 mM stock solution in water stored at −20° C.). The PARP-1 enzyme was produced using art known techniques, i.e. cloning and expression of the protein starting from human liver cDNA. Information concerning the used protein sequence of the PARP-1 enzyme including literature references can be found in the Swiss-Prot database under primary accession number P09874. Biotinylated histones and PVT-SPA beads were mixed and pre-incubated for 30 min. at room temperature. PARP-1 enzyme (concentration was lot dependent) was mixed with the nicked DNA and the mixture was pre-incubated for 30 min. at 4° C. Equal parts of this histones/PVT-SPA beads solution and PARP-1 enzyme/DNA solution were mixed and 75 μl of this mixture together with 1 μl of compound in DMSO and 25 μl of [^3H]-NAD^+ was added per well into a 96-well microtiterplate. The final concentrations in the incubation mixture were 2 μg/ml for the biotinylated histones, 2 mg/ml for the PVT-SPA beads, 2 μg/ml for the nicked DNA and between 5-10 μg/ml for the PARP-1 enzyme. After incubation of the mixture for 15 min. at room temperature, the reaction was terminated by adding 100 μl of 4 mM NAD^+ in incubation buffer (final concentration 2 mM) and plates were mixed.
The beads were allowed to sediment for at least 15 min. and plates transferred to a TopCountNXT™ (Packard) for scintillation counting, values were expressed as counts per minute (cpm). For each experiment, controls (containing PARP-1 enzyme and DMSO without compound), a blank incubation (containing DMSO but no PARP-1 enzyme or compound) and samples (containing PARP-1 enzyme and compound dissolved in DMSO) were run in parallel. All compounds tested were dissolved and eventually further diluted in DMSO. […] In each test, the blank value was subtracted from both the control and the sample values. The control sample represented maximal PARP-1 enzyme activity. For each sample, the amount of cpm was expressed as a percentage of the mean cpm value of the controls. When appropriate, IC50-values (concentration of the drug, needed to reduce the PARP-1 enzyme activity to 50% of the control) were computed using linear interpolation between the experimental points just above and below the 50% level. […]

T1 sequence (P09874 whole entry): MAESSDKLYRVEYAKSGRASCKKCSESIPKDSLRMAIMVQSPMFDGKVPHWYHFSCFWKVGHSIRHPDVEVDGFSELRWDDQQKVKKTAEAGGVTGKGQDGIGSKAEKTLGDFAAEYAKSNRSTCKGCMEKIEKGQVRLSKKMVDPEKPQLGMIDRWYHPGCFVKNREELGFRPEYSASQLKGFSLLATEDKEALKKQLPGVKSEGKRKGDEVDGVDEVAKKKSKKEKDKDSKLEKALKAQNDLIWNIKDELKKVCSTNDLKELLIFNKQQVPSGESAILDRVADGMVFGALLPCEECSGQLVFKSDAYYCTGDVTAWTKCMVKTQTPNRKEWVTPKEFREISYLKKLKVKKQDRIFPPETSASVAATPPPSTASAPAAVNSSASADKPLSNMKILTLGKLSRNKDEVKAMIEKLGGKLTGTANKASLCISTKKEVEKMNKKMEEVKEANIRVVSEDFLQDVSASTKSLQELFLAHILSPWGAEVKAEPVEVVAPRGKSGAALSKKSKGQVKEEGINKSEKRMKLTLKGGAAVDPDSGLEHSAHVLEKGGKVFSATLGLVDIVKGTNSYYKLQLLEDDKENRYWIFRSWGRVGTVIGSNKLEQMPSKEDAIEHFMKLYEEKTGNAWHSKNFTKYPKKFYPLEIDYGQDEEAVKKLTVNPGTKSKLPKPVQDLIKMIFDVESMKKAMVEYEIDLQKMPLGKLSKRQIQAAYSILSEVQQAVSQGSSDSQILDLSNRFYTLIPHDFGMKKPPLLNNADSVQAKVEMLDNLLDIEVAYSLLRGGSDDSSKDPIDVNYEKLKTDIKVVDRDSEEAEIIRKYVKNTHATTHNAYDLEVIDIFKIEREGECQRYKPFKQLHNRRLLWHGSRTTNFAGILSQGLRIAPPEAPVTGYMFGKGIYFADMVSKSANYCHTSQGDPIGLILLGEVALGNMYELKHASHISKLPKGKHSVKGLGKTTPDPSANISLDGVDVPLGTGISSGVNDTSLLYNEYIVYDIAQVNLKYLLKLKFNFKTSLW

| Compound | IC50 |
| --- | --- |
| O=c1[nH]nc(C2CCN(Cc3ccccc3)CC2)c2ccccc12 [Compound 1] | 284 nM |
| O=c1[nH]nc(N[C@@H]2C[C@H]3CC[C@@H](C2)N3CCCC(c2ccc(F)cc2)c2ccc(F)cc2)c2ccccc12 [Compound 3] | 430 nM |
| Cc1nnc(N2CCN(CCn3c(=O)[nH]c4ccccc4c3=O)CC2)c2ccccc12 [Compound 70] | 3440 nM |
| Cc1nc2ccccn2c(=O)c1CCN1CCN(c2nnc(C)c3ccccc23)CC1 [Compound 72] | 8970 nM |
| Clc1nnc(NC2CCN(CCCCOc3ccccc3)CC2)c2ccccc12 [Compound 59] | 3300 nM |
| O=c1[nH]nc(NC2CCN(C/C=C/c3ccccc3)CC2)c2ccccc12 [Compound 65] | 851 nM |
| O=c1[nH]nc(C2CCN(CCCOc3ccc(F)cc3)CC2)c2ccccc12 [Compound 13] | 75.5 nM |
| Cc1nc2n(c(=O)c1CCN1CCN(c3nnc(C)c4ccccc34)CC1)CCCS2 [Compound 76] | 3630 nM |
| O=c1[nH]nc(NC2CCN(C[C@@H](O)[C@@H]3CCc4ccccc4O3)CC2)c2ccccc12 (relative stereo) [Compound 27] | 857 nM |
| CN(c1nc2ccccc2s1)C1CCN(c2nnc(Cl)c3ccccc23)CC1 [Compound 61] | 1290 nM |
| CCOC(=O)N1CCC(Nc2n[nH]c(=O)c3ccccc23)CC1 [Compound 56] | 5640 nM |
| CCOC(=O)N1CCC(Nc2n[nH]c(=O)c3ccccc23)C1 (centres unmarked) [Compound 48] | 3070 nM |
| CCOC(=O)N1CCC(c2n[nH]c(=O)c3ccccc23)CC1 [Compound 25] | 2990 nM |
| CCOC(=O)N1CCCC(Nc2n[nH]c(=O)c3ccccc23)CC1 (centres unmarked) [Compound 50] | 2510 nM |
| O=c1[nH]nc(NCC2CCCN(Cc3ccccc3)C2)c2ccccc12 (centres unmarked) [Compound 44] | 1120 nM |
| O=c1[nH]nc(NC2CCN(Cc3ccccc3)C2)c2ccccc12 (centres unmarked) [Compound 51] | 432 nM |
| CCOC(=O)N1[C@@H]2CC[C@H]1C[C@H](Nc1n[nH]c(=O)c3ccccc13)C2 [Compound 11] | 86.7 nM |
| O=c1[nH]nc(C2CCN(CCCC(c3ccc(F)cc3)c3ccc(F)cc3)CC2)c2ccccc12 [Compound 67] | 303 nM |
| O=c1[nH]nc(NC2CCCNCC2)c2ccccc12 (centres unmarked) [Compound 34] | 120 nM |
| O=c1[nH]nc(NC2CCCN(Cc3ccccc3)C2)c2ccccc12 (centres unmarked) [Compound 53] | 1070 nM |
| O=c1[nH]nc(NC2CCCN(CCCC(c3ccc(F)cc3)c3ccc(F)cc3)CC2)c2ccccc12 (centres unmarked) [Compound 30] | 442 nM |

| Compound | IC50 |
| --- | --- |
| Cc1nnc(N2CCN(CCn3c(=O)[nH]c4ccccc43)CC2)c2ccccc12 [Compound 71] | 7410 nM |
| Cc1nc2scc(C)n2c(=O)c1CCN1CCN(c2nnc(C)c3ccccc23)CC1 [Compound 74] | 3210 nM |
| O=c1[nH]nc(NCC2CCCN(CCCC(c3ccc(F)cc3)c3ccc(F)cc3)C2)c2ccccc12 (centres unmarked) [Compound 49] | 3820 nM |
| CCOC(=O)N1[C@@H]2CC[C@H]1C[C@H](Nc1nnc(Cl)c3ccccc13)C2 [Compound 24] | 973 nM |
| O=c1[nH]nc(C2CCN(c3ncccn3)CC2)c2ccccc12 [Compound 69] | 2150 nM |
| O=c1[nH]nc(C2CCN(C/C=C/c3ccccc3)CC2)c2ccccc12 [Compound 66] | 767 nM |
| O=c1[nH]nc(C2CCN(CCCCOc3ccccc3)CC2)c2ccccc12 [Compound 68] | 274 nM |
| O=c1[nH]nc(N[C@@H]2C[C@H]3CC[C@@H](C2)N3)c2ccccc12 [Compound 15] | 139 nM |
| O=c1[nH]nc(N2CCN(CCCC(c3ccc(F)cc3)c3ccc(F)cc3)CC2)c2ccccc12 [Compound 52] | 435 nM |
| COc1ccc(CCN2CCC(Nc3n[nH]c(=O)c4ccccc34)CC2)cc1 [Compound 63] | 684 nM |
| O=c1[nH]nc(C2CCNCC2)c2ccccc12 [Compound 4] | 251 nM |
| Cc1nc2n(c(=O)c1CCN1CCN(c3nnc(C)c4ccccc34)CC1)CCS2 [Compound 75] | 4240 nM |
| CCOC(=O)N1CCN(c2nnc(Cl)c3ccccc23)CC1 [Compound 58] | 10000 nM |
| O=c1[nH]nc(N2CCC(c3cccc(C(F)(F)F)c3)C2)c2ccccc12 (centres unmarked) [Compound 55] | 1650 nM |
| Clc1nnc(N2CCN(c3ccccc3)CC2)c2ccccc12 [Compound 77] | 1320 nM |
| Cc1nc2sccn2c(=O)c1CCN1CCN(c2nnc(C)c3ccccc23)CC1 [Compound 73] | 1900 nM |
| O=c1[nH]nc(NC2CCN(CCCCOc3ccccc3)CC2)c2ccccc12 [Compound 46] | 843 nM |
| Clc1nnc(NC2CCN(Cc3ccccc3)C2)c2ccccc12 (centres unmarked) [Compound 12] | 1140 nM |
| Fc1ccc(C(CCCN2CCN(c3nnc(Cl)c4ccccc34)CC2)c2ccc(F)cc2)cc1 [Compound 57] | 1970 nM |
| Cc1nnc(N2CCN(CCCC(c3ccc(F)cc3)c3ccc(F)cc3)CC2)c2ccccc12 [Compound 29] | 1780 nM |
